{
  "source": "ChEMBL document CHEMBL1136209",
  "about": "“Bone-targeted 2,6,9-trisubstituted purines: novel inhibitors of Src tyrosine kinase for the treatment of bone diseases” (Bioorg Med Chem Lett, 2003)",
  "key": {"[1]": {"assay": "Compound was tested for its relative bone-targeting affinity using a hydroxyapatite column"}, "[2]": {"target": "T1, Tyrosine-protein phosphatase non-receptor type 1 (Homo sapiens) (UniProt P18031)", "T1 sequence (whole entry)": "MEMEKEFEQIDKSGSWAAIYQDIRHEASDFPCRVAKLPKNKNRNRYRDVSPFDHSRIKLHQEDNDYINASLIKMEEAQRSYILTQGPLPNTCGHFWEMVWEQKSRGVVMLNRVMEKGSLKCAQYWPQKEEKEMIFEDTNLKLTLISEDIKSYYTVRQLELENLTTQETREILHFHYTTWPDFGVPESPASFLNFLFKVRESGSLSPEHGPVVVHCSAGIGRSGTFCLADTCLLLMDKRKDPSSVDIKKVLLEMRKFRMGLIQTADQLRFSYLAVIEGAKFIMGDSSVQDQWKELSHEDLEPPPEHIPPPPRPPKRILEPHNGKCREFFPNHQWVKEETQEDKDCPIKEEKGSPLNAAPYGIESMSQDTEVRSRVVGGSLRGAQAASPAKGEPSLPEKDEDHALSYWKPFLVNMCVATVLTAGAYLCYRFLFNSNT", "assay": "Selectivity towards Protein phosphatase, PTP1b"}, "[3]": {"target": "Receptor-type tyrosine-protein phosphatase F (Homo sapiens) (UniProt P10586)", "sequence (P10586 whole entry)": "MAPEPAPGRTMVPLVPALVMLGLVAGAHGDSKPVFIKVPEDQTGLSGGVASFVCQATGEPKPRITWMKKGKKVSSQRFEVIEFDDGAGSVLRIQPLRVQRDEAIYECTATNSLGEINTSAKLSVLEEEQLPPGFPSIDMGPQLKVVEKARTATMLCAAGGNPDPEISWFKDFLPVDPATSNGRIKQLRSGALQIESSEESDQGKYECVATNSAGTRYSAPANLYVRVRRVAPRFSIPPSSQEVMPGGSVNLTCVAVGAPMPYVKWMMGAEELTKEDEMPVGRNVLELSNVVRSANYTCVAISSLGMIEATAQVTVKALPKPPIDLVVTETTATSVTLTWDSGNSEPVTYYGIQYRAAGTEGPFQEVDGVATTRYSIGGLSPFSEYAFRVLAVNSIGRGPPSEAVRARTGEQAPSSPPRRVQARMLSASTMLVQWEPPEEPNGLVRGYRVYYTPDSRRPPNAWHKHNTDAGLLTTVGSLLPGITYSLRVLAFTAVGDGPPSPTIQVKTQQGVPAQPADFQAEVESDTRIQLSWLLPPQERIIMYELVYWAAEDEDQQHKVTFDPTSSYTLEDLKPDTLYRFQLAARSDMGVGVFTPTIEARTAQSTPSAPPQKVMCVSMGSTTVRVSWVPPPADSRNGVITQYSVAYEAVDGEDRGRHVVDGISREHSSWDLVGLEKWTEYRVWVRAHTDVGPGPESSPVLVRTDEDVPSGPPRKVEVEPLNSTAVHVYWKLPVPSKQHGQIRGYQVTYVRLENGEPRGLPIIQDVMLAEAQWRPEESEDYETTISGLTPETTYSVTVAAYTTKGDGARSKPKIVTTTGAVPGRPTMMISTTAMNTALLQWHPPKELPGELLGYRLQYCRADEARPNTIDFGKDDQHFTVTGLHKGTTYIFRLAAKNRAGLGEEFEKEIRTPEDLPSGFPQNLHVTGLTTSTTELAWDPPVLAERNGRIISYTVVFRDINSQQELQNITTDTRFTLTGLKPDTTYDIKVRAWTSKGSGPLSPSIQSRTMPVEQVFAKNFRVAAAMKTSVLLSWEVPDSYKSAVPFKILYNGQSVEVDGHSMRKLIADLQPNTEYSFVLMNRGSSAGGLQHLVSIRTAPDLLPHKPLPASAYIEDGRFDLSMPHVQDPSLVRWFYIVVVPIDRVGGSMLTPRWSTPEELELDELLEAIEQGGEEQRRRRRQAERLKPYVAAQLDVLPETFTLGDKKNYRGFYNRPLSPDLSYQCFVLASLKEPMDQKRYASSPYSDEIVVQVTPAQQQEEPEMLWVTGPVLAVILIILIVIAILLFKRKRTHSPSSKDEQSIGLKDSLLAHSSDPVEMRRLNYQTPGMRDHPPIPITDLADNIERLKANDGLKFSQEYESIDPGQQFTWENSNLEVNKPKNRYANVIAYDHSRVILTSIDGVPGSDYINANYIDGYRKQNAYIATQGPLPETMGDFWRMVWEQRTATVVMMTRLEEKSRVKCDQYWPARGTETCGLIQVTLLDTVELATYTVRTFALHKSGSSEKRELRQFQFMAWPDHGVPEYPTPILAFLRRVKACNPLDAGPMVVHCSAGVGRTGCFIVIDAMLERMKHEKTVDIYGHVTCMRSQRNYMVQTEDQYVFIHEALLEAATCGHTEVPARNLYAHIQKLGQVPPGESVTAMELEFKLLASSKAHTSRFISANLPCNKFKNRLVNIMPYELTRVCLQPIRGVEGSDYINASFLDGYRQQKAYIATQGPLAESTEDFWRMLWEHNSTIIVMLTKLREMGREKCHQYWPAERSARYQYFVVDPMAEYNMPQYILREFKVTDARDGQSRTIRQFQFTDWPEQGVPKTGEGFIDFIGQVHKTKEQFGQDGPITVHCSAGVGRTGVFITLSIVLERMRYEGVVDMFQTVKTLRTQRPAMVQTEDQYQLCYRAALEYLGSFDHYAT", "assay": "Selectivity towards Protein phosphatase, LAR"}, "[4]": {"target": "Tyrosine-protein kinase Fyn (Homo sapiens) (UniProt P06241)", "sequence (P06241 2-537 limits assumed)": "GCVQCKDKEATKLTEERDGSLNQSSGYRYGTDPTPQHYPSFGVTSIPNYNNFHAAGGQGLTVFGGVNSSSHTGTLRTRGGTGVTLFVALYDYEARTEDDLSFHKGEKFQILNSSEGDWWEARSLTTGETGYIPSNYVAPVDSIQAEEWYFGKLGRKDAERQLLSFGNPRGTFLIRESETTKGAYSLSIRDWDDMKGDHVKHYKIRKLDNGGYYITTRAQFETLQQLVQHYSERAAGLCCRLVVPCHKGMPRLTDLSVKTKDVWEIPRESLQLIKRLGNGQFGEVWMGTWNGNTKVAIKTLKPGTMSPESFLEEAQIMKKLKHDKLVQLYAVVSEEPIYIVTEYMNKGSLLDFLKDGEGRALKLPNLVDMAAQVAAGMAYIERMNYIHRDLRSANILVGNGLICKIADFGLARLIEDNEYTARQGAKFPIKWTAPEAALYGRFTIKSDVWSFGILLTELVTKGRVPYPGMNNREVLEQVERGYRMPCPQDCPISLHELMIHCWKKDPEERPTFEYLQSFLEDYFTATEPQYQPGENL", "assay": "Selectivity for Fyn kinase"}, "[5]": {"target": "DNA-dependent protein kinase catalytic subunit (Homo sapiens) (UniProt P78527)", "assay": "Selectivity for Protein kinase, DNAPK"}, "[6]": {"target": "Serine/threonine-protein kinase pim-1 (Homo sapiens) (UniProt P11309)", "sequence (P11309 whole entry, looked up)": "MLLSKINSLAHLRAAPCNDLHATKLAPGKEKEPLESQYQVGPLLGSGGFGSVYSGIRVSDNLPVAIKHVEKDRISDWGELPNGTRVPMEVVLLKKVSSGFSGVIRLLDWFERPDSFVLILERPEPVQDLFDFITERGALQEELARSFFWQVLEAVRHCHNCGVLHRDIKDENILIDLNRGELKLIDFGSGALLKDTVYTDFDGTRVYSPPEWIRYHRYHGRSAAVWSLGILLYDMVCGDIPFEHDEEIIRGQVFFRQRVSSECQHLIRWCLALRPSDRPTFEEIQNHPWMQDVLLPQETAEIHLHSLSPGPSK", "assay": "Selectivity for pim-1 oncogene"}, "[7]": {"target": "Serine/threonine-protein kinase pim-1 (Homo sapiens) (UniProt P11309)", "assay": "Selectivity towards Protein kinase, PIM1"}, "[8]": {"target": "cAMP-dependent protein kinase (PKA) (Homo sapiens) (UniProt P22694+P17612+P22612)", "assay": "Selectivity for PKA", "type": "protein assay"}, "[9]": {"target": "Glycogen synthase kinase-3 beta (Homo sapiens) (UniProt P49841)", "assay": "Selectivity for GSK3-beta"}, "[10]": {"target": "Wee1-like protein kinase (Homo sapiens) (UniProt P30291)", "assay": "Selectivity for Protein kinase WEE1"}, "[11]": {"assay": "Selectivity towards Protein phosphatase, TC-PTP"}, "[12]": {"target": "Protein kinase C (PKC) (Homo sapiens) (UniProt O94806+P41743+P17252+P05129+Q05655+P05771+Q05513+Q02156+P24723+Q15139+Q04759)", "assay": "Selectivity for Protein kinase, PKC", "type": "protein assay"}, "[13]": {"target": "Cyclin-dependent kinase 1 (Homo sapiens) (UniProt P06493)", "sequence (P06493 whole entry, looked up)": "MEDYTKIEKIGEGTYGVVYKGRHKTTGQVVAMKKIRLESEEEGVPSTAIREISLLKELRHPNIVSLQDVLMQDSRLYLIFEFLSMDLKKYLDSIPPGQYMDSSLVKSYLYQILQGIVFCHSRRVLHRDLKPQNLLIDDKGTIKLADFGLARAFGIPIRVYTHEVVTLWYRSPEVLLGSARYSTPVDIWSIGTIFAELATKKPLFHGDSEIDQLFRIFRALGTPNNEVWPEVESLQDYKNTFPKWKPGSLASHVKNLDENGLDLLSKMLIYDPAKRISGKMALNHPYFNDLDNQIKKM", "assay": "Selectivity for cyclin-dependent kinase-1, CDK1"}, "[14]": {"target": "T2, Cyclin-dependent kinase 2 (Homo sapiens, UniProt P24941)", "assay": "Selectivity for cyclin-dependent kinase 2, CDK2"}, "[15]": {"target": "Tyrosine-protein kinase Lck (Homo sapiens) (UniProt P06239)", "sequence (P06239 2-509 limits assumed)": "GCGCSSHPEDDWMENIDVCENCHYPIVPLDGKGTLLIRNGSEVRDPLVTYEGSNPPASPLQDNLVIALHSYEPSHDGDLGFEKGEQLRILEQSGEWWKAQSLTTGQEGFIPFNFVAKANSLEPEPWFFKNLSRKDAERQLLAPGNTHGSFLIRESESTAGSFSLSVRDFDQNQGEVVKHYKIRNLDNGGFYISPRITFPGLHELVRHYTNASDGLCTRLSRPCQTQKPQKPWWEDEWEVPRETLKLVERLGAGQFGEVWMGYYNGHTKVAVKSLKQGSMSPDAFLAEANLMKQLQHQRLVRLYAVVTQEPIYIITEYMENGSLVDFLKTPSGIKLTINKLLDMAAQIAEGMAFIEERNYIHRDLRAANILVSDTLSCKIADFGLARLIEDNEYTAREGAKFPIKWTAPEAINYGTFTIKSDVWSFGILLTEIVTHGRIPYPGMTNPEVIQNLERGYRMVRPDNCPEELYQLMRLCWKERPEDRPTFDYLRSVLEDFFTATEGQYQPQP", "assay": "Selectivity p56 Lck tyrosine kinase"}, "[16]": {"target": "Casein kinase II (Homo sapiens) (UniProt P67870+P68400+P19784)", "assay": "Selectivity for casein kinase II, CK2", "type": "protein-complex assay"}, "[17]": {"target": "T3, Serine/threonine-protein kinase 3 (Homo sapiens) (UniProt Q13188)", "T3 sequence (whole entry)": "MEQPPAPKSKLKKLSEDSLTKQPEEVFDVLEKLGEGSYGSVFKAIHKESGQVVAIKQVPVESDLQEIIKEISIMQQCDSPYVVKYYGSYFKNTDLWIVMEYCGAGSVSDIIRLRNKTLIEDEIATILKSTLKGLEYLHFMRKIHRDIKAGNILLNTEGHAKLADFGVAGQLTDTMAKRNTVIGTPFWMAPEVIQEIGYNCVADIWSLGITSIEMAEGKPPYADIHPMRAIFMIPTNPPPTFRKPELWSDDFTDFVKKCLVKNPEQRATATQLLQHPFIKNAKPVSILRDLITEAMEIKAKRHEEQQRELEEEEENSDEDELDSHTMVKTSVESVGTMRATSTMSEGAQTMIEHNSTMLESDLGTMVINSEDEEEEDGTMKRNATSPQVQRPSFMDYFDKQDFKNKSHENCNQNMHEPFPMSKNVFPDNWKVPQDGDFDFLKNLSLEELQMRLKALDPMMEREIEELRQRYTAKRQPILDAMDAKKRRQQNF", "assay": "Selectivity for Serine/threonine kinase 3"}, "[18]": {"target": "Cyclin-dependent kinase 5 (Homo sapiens) (UniProt Q00535)", "assay": "Selectivity for cyclin-dependent kinase-5, CDK5"}, "[19]": {"target": "Tyrosine-protein kinase CSK (Homo sapiens) (UniProt P41240)", "sequence (P41240 2-450 limits assumed)": "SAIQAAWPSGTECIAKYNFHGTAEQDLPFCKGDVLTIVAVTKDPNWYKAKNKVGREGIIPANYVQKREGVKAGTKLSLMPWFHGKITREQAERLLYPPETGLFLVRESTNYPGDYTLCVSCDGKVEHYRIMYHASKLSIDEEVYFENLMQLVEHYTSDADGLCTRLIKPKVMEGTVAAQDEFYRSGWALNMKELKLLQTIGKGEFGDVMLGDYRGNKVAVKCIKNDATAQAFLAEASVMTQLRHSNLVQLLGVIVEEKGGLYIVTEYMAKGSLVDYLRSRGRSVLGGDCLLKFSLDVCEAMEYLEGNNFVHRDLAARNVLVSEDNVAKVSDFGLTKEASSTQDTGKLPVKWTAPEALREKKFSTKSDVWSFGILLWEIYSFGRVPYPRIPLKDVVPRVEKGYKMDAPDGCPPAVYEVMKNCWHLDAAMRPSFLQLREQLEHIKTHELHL", "assay": "Selectivity over Protein kinase CSK (100-500)"}, "[20]": {"target": "T4, Scaffold protein ILK (Homo sapiens) (UniProt Q13418)", "T4 sequence (whole entry)": "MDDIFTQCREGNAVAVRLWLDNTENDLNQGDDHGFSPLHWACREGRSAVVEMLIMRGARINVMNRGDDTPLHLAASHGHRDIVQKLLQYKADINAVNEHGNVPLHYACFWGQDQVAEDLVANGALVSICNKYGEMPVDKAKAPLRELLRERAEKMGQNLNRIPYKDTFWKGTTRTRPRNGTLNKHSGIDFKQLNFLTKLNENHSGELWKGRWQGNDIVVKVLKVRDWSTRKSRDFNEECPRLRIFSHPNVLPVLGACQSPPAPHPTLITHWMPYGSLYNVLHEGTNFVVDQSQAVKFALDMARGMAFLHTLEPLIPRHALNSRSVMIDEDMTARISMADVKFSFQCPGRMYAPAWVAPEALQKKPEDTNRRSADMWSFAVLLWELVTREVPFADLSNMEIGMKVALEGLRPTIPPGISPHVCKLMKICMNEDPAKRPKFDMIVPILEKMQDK", "assay": "Selectivity towards Protein kinase, ILK1"}, "[21]": {"target": "Mitogen-activated protein kinase 3 (Homo sapiens) (UniProt P27361)", "sequence (P27361 whole entry)": "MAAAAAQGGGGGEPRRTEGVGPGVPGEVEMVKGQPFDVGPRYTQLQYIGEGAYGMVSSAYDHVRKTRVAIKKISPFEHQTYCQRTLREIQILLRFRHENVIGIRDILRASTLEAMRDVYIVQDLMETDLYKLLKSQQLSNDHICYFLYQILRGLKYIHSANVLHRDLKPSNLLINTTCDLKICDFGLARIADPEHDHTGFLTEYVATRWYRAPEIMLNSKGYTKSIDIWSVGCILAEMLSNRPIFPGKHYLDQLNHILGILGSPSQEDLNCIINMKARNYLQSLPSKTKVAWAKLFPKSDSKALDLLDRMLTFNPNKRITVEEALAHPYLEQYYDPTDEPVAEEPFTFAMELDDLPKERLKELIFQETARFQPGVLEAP", "assay": "Selectivity for mitogen-activated protein kinase, ERK1"}, "[22]": {"assay": "Selectivity towards Protein phosphatase, MEG2"}, "[23]": {"assay": "Selectivity towards Protein kinase, EST-PT1"}, "[24]": {"target": "Serine/threonine-protein kinase PAK 3 (Homo sapiens) (UniProt O75914)", "sequence (O75914 whole entry, looked up)": "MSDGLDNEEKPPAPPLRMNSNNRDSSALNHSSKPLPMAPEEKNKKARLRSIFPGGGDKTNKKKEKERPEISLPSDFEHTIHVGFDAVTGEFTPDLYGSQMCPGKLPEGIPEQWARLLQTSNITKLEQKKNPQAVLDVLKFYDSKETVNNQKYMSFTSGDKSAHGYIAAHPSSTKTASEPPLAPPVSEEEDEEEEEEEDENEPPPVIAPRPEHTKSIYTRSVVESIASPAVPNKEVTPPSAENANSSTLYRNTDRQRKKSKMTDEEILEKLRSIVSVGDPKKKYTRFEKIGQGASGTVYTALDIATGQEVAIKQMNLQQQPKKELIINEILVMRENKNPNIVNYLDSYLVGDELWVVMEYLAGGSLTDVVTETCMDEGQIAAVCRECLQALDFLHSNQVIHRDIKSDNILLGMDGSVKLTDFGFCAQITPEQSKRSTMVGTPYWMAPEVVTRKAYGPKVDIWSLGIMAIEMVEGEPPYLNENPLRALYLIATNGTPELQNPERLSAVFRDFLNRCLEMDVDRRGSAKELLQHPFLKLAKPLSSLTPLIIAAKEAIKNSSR", "assay": "Selectivity for p21-activated kinase-3, PAK3"}, "[25]": {"target": "T2, Cyclin-dependent kinase 2", "assay": "Inhibition of Cyclin-dependent kinase 2 (CDK2)"}},
  "data": [
    {"smiles": "N[C@H]1CC[C@H](Nc2nc(Nc3ccc(C(P(=O)(O)O)P(=O)(O)O)cc3)c3ncn(C4CCCC4)c3n2)CC1", "values": [
      {"measurement": "K'", "setting": "[1]", "value": 3.3}
    ]},
    {"smiles": "O=P(O)(O)CP(=O)(O)CCCNc1nc(Nc2ccccc2)c2ncn(C3CCCC3)c2n1", "values": [
      {"measurement": "K'", "setting": "[1]", "value": 2.3}
    ]},
    {"smiles": "N[C@H]1CC[C@H](Nc2nc(Nc3ccccc3)c3ncn(C4CCCC4)c3n2)CC1", "values": [
      {"measurement": "K'", "setting": "[1]", "value": 0}
    ]},
    {"smiles": "N[C@H]1CC[C@H](Nc2nc(Nc3ccc(P(=O)(O)CP(=O)(O)O)cc3)c3ncn(C4CCCC4)c3n2)CC1", "values": [
      {"measurement": "Selectivity", "setting": "[2]", "value": "> 500"},
      {"measurement": "Selectivity", "setting": "[3]", "value": "> 500"},
      {"measurement": "Selectivity", "setting": "[4]", "value": 1},
      {"measurement": "Selectivity", "setting": "[5]", "value": "> 500"},
      {"measurement": "Selectivity", "setting": "[6]", "value": "> 500"},
      {"measurement": "Selectivity", "setting": "[7]", "value": "> 500"},
      {"measurement": "Selectivity", "setting": "[8]", "value": "> 500"},
      {"measurement": "Selectivity", "setting": "[9]", "value": "> 500"},
      {"measurement": "Selectivity", "setting": "[10]", "value": "> 500"},
      {"measurement": "Selectivity", "setting": "[11]", "value": "> 500"},
      {"measurement": "K'", "setting": "[1]", "value": 2.5},
      {"measurement": "Selectivity", "setting": "[12]", "value": "> 500"},
      {"measurement": "Selectivity", "setting": "[13]", "value": 10},
      {"measurement": "Selectivity", "setting": "[14]", "value": 10},
      {"measurement": "Selectivity", "setting": "[15]", "value": 100},
      {"measurement": "Selectivity", "setting": "[16]", "value": "> 500"},
      {"measurement": "Selectivity", "setting": "[17]", "value": "> 500"},
      {"measurement": "Selectivity", "setting": "[18]", "value": 10},
      {"measurement": "Selectivity", "setting": "[19]", "value": 100},
      {"measurement": "Selectivity", "setting": "[20]", "value": "> 500"},
      {"measurement": "Selectivity", "setting": "[21]", "value": "> 500"},
      {"measurement": "Selectivity", "setting": "[22]", "value": "> 500"},
      {"measurement": "Selectivity", "setting": "[23]", "value": "> 500"},
      {"measurement": "Selectivity", "setting": "[24]", "value": 100}
    ]},
    {"smiles": "CN(C)CCNc1nc(Nc2ccccc2)c2ncn(C3CCCC3)c2n1", "values": [
      {"measurement": "K'", "setting": "[1]", "value": 0}
    ]},
    {"smiles": "O=P(O)(O)C(O)(CCCNc1nc(Nc2ccccc2)c2ncn(C3CCCC3)c2n1)P(=O)(O)O", "values": [
      {"measurement": "K'", "setting": "[1]", "value": 3.6}
    ]},
    {"smiles": "N[C@H]1CC[C@H](Nc2nc(Nc3ccc(P(=O)(O)O)c(P(=O)(O)O)c3)c3ncn(C4CCCC4)c3n2)CC1", "values": [
      {"measurement": "K'", "setting": "[1]", "value": 1.8}
    ]},
    {"smiles": "CC(C)[C@H](CO)Nc1nc(Nc2cccc(Cl)c2)c2ncn(C(C)C)c2n1", "note": "[PURVALANOLA]", "values": [
      {"measurement": "IC50", "setting": "[25]", "value": 4, "unit": "nM"}
    ]}
  ]
}
